This passage reports IC50 results from patent US10722501B2 (BAYER AKTIENGESELLSCHAFT, priority 2016, dated 2020).

This experiment deals with T1, recombinant full-length human prolyl endopeptidase (PREP) (Homo sapiens, UniProt P48147).
T1 construct: To recombinant full-length human prolyl endopeptidase (PREP, R&D-Systems, 4308-SE); purchased R&D-Systems 4308-SE
T1 sequence (P48147 1-710): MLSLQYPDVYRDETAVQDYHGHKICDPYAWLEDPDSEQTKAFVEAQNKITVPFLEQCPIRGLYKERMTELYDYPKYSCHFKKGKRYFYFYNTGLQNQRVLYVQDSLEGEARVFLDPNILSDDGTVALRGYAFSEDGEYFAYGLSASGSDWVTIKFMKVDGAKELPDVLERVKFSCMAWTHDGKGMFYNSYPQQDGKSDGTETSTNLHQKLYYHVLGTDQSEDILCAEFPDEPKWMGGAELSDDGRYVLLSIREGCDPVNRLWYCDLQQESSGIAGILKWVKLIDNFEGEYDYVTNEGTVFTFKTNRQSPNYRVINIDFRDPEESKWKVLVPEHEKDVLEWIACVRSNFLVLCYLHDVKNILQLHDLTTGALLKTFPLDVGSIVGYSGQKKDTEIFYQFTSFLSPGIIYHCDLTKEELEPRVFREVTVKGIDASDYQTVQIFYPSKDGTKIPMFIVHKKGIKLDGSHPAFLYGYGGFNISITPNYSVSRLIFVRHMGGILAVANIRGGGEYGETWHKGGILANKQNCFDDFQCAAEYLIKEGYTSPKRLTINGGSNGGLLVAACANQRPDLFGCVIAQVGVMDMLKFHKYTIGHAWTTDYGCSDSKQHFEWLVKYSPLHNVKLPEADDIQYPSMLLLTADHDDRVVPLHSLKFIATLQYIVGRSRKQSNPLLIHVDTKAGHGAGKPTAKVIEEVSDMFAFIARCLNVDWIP
Put plainly: Biochemical human prolyl endopeptidase (PREP) assay with fluorescently labelled substrate. The following applies: substrate Z-Gly-Pro-AMC 50 μM, 32° C., 60 min; some as mean values from multiple independent determinations. The method, then:
B-1 Biochemical Human Prolyl Endopeptidase (PREP) Assay for Identification of Inhibitors of PREP Activity Using a Fluorescently Labelled Substrate Principle of the Assay:
The enzymatic conversion of the fluorescent peptide substrate was observed on the basis of the measurement of the fluorescence intensity. The enzyme activity was determined by the ascertaining of the initial slope in the increase in fluorescence. Compounds that inhibit PREP were identified on the basis of the decrease in the initial slope compared to a reaction mixture without test compound.
Determination of Activity:
IC50 values were determined by the plotting of the percentage PREP activity against the concentration of the test substance by interpolation.
To recombinant full-length human prolyl endopeptidase (PREP, R&D-Systems, 4308-SE; final concentration, for example, 0.4 nM, volume: 25 μl) in reaction buffer (50 mM Tris-HCl, pH 7.5; 150 mM NaCl; 0.13% BSA, 5 mM EDTA, 3 mM GSH, 0.005% Brij-35) was added a test compound (in DMSO, in an appropriate final concentration range from 1 nM to 30 μM, volume: 1 μl) in a well of a 384-well microtitre plate. The reaction was initiated by adding the substrate Z-Gly-Pro-AMC (final concentration 50 μM; Z=carboxybenzyl; AMC=7-amino-4-methylcoumarin, volume: 25 μl). The progress of the PREP reaction was observed by measuring the fluorescence intensity in a Tecan SAFIRE II plate spectrophotometer at 32° C. over a period of 60 min (excitation wavelength: 360 nm, emission wavelength: 465 nm).
Table B-1 below collates the IC50 values thus obtained from the human prolyl endopeptidase assay for individual working examples of the invention (some as mean values from multiple independent individual determinations).
For the compound `O=C(C1CCCc2nn(Cc3ccc(Cl)c(Cl)c3)c(=O)n21)N1CCCC1` (racemic) [Example 39, (5RS)-2-(3,4-Dichlorobenzyl)-5-(pyrrolidin-1-ylcarbonyl)-5,6,7,8-tetrahydro[1,2,4]triazolo[4,3-a]pyridin-3(2H)-one], the IC50 was 0.55 nM.
The figure for `O=C(C1CCCc2nn(CC3CCC(C(F)(F)F)CC3)c(=O)n21)N1CCCC1` (racemic) [Example 40, (5RS)-5-(Pyrrolidin-1-ylcarbonyl)-2-{[4-(trifluoromethyl)cyclohexyl]methyl}-5,6,7,8-tetrahydro[1,2,4]triazolo[4,3-a]pyridin-3(2H)-one] is 5.2 nM.
The figure for `O=C(C1CCCc2nn(CC3CCC(F)(F)CC3)c(=O)n21)N1CCCC1` (racemic) [Example 41, (5RS)-2-[(4,4-Difluorocyclohexyl)methyl]-5-(pyrrolidin-1-ylcarbonyl)-5,6,7,8-tetrahydro[1,2,4]triazolo[4,3-a]pyridin-3(2H)-one] is 13 nM; for `Cc1ccc(Cn2nc3n(c2=O)C(C(=O)N2CCC(F)(F)C2)CCC3)cc1` (racemic) [Example 42, (5RS)-5-[(3,3-Difluoropyrrolidin-1-yl)carbonyl]-2-(4-methylbenzyl)-5,6,7,8-tetrahydro[1,2,4]triazolo[4,3-a]pyridin-3(2H)-one] it is 1.45 nM.
With `O=C(C1CCCc2nn(Cc3ccc(Cl)c(C(F)(F)F)c3)c(=O)n21)N1CCC(F)(F)C1` (racemic) [Example 43], the IC50 came out at 1.9 nM.
The figure for `O=C(C1CCCc2nn(Cc3cccc(Cl)c3)c(=O)n21)N1CCC(F)(F)C1` (racemic) [Example 44, (5RS)-2-(3-Chlorobenzyl)-5-[(3,3-difluoropyrrolidin-1-yl)carbonyl]-5,6,7,8-tetrahydro[1,2,4]triazolo[4,3-a]pyridin-3(2H)-one] is 2.1 nM; for `O=C(C1CCCc2nn(Cc3ccc(Cl)c(Cl)c3)c(=O)n21)N1CCC(F)(F)C1` (racemic) [Example 45, (5RS)-2-(3,4-Dichlorobenzyl)-5-[(3,3-difluoropyrrolidin-1-yl)carbonyl]-5,6,7,8-tetrahydro[1,2,4]triazolo[4,3-a]pyridin-3(2H)-one] it is 1.6 nM.
The figure for `COc1ccc(Cn2nc3n(c2=O)C(C(=O)N2CCCC2)CCC3)cc1Cl` (racemic) [Example 46, (5RS)-2-(3-Chloro-4-methoxybenzyl)-5-(pyrrolidin-1-ylcarbonyl)-5,6,7,8-tetrahydro[1,2,4]triazolo[4,3-a]pyridin-3(2H)-one] is 0.95 nM.
Next, `O=C(C1CCCc2nn(Cc3cccc(C(F)(F)F)c3)c(=O)n21)N1CCC(F)(F)C1` (racemic) [Example 47, (5RS)-5-[(3,3-Difluoropyrrolidin-1-yl)carbonyl]-2-[3-(trifluoromethyl)benzyl]-5,6,7,8-tetrahydro[1,2,4]triazolo[4,3-a]pyridin-3(2H)-one]: 1.6 nM; `COc1cccc(Cn2nc3n(c2=O)C(C(=O)N2CCC(F)(F)C2)CCC3)c1` (racemic) [Example 48, (5RS)-5-[(3,3-Difluoropyrrolidin-1-yl)carbonyl]-2-(3-methoxybenzyl)-5,6,7,8-tetrahydro[1,2,4]triazolo[4,3-a]pyridin-3(2H)-one]: 5 nM.
With `COc1ccc(Cn2nc3n(c2=O)C(C(=O)N2CCC(F)(F)C2)CCC3)cc1Cl` (racemic) [Example 49, (5RS)-2-(3-Chloro-4-methoxybenzyl)-5-[(3,3-difluoropyrrolidin-1-yl)carbonyl]-5,6,7,8-tetrahydro[1,2,4]triazolo[4,3-a]pyridin-3(2H)-one], the IC50 amounted to 1.75 nM.
`O=C(C1CCCc2nn(Cc3ccc(Cl)s3)c(=O)n21)N1CCCC1` (racemic) [Example 53, (5RS)-2-[(5-Chloro-2-thienyl)methyl]-5-(pyrrolidin-1-ylcarbonyl)-5,6,7,8-tetrahydro[1,2,4]triazolo[4,3-a]pyridin-3(2H)-one]: the IC50 stood at 0.71 nM.
As to `O=C(C1CCCc2nn(Cc3ccc(Cl)s3)c(=O)n21)N1CCC(F)(F)C1` (racemic) [Example 54, (5RS)-2-[(5-Chloro-2-thienyl)methyl]-5-[(3,3-difluoropyrrolidin-1-yl)carbonyl]-5,6,7,8-tetrahydro[1,2,4]triazolo[4,3-a]pyridin-3(2H)-one], the IC50 is 1.3 nM.
As for `O=C(C1CCCc2nn(Cc3cccc(F)c3)c(=O)n21)N1CCC(F)(F)C1` (racemic) [Example 56, (5RS)-5-[(3,3-Difluoropyrrolidin-1-yl)carbonyl]-2-(3-fluorobenzyl)-5,6,7,8-tetrahydro[1,2,4]triazolo[4,3-a]pyridin-3(2H)-one], the IC50 worked out at 5.6 nM.
The figure for `Cc1ccc(CCn2nc3n(c2=O)C(C(=O)N2CCCC2)CCC3)cc1` (racemic) [Example 57, (5RS)-2-[2-(4-Methylphenyl)ethyl]-5-(pyrrolidin-1-ylcarbonyl)-5,6,7,8-tetrahydro[1,2,4]triazolo[4,3-a]pyridin-3(2H)-one] is 4.1 nM; for `Cc1ccccc1Cn1nc2n(c1=O)C(C(=O)N1CCCC1)CCC2` (racemic) [Example 58, (5RS)-2-(2-Methylbenzyl)-5-(pyrrolidin-1-ylcarbonyl)-5,6,7,8-tetrahydro[1,2,4]triazolo[4,3-a]pyridin-3(2H)-one] it is 4 nM; for `O=C(C1CCCc2nn(Cc3ccnc(Cl)c3)c(=O)n21)N1CCCC1` (racemic) [Example 59, (5RS)-2-[(2-Chloropyridin-4-yl)methyl]-5-(pyrrolidin-1-ylcarbonyl)-5,6,7,8-tetrahydro[1,2,4]triazolo[4,3-a]pyridin-3(2H)-one] it is 12.2 nM.
On to `Cc1nonc1Cn1nc2n(c1=O)C(C(=O)N1CCCC1)CCC2` (racemic) [Example 60, (5RS)-2-[(4-Methyl-1,2,5-oxadiazol-3-yl)methyl]-5-(pyrrolidin-1-ylcarbonyl)-5,6,7,8-tetrahydro[1,2,4]triazolo[4,3-a]pyridin-3(2H)-one], for which the IC50 was found to be 18.5 nM.
On to `Cc1cc(Cn2nc3n(c2=O)C(C(=O)N2CCCC2)CCC3)no1` (racemic) [Example 61, (5RS)-2-[(5-Methyl-1,2-oxazol-3-yl)methyl]-5-(pyrrolidin-1-ylcarbonyl)-5,6,7,8-tetrahydro[1,2,4]triazolo[4,3-a]pyridin-3(2H)-one], for which the IC50 came out at 16 nM.
Next, `Cn1c(Cn2nc3n(c2=O)C(C(=O)N2CCCC2)CCC3)nc2ccccc21` (racemic) [Example 62, (5RS)-2-[(1-Methyl-1H-benzimidazol-2-yl)methyl]-5-(pyrrolidin-1-ylcarbonyl)-5,6,7,8-tetrahydro[1,2,4]triazolo[4,3-a]pyridin-3(2H)-one]: 2 nM; `COc1ccc(Cn2nc3n(c2=O)C(C(=O)N2CCCC2)CCC3)cc1C(F)(F)F` (racemic) [Example 63]: 0.74 nM; `Cn1ncc2cc(Cn3nc4n(c3=O)C(C(=O)N3CCCC3)CCC4)ccc21` (racemic) [Example 64, (5RS)-2-[(1-Methyl-1H-indazol-5-yl)methyl]-5-(pyrrolidin-1-ylcarbonyl)-5,6,7,8-tetrahydro[1,2,4]triazolo[4,3-a]pyridin-3(2H)-one]: 0.94 nM.
As for `O=C(C1CCCc2nn(Cc3cc(C(F)(F)F)ccc3C(F)(F)F)c(=O)n21)N1CCCC1` (racemic) [Example 65, (5RS)-2-[2,5-Bis(trifluoromethyl)benzyl]-5-(pyrrolidin-1-ylcarbonyl)-5,6,7,8-tetrahydro[1,2,4]triazolo[4,3-a]pyridin-3(2H)-one], the IC50 came out at 1.85 nM.
Next, `O=C(C1CCCc2nn(Cc3ccc(F)c(C(F)(F)F)c3)c(=O)n21)N1CCCC1` (racemic) [Example 66]: 0.38 nM; `O=C(C1CCCc2nn(Cc3ccc(OC(F)(F)F)c(F)c3)c(=O)n21)N1CCCC1` (racemic) [Example 67, (5RS)-2-[3-Fluoro-4-(trifluoromethoxy)benzyl]-5-(pyrrolidin-1-ylcarbonyl)-5,6,7,8-tetrahydro[1,2,4]triazolo[4,3-a]pyridin-3(2H)-one]: 8.7 nM.

What is called IC50 is the midpoint of a concentration-inhibition curve.
